Experiments:
Assay type in all cases: cell-based, human
[1] = test system: LS-174T colon cancer line; assay: growth inhibition and release from inhibition, LS-174T (FIG. 3)
Description: 1×10^5 cells/60 mm dish were seeded, and 24 hours later (Day 0), the medium was removed and fresh medium and additives were added then and every 48 hours thereafter. […] The triplicate cell count for each experimental point never varied by more than 10%.
(§1) All breast cancer cell lines were grown in IMEM supplemented with 10% fetal bovine serum, 20 mM HEPES, penicillin-streptomycin, and extra glutamine. Colon carcinoma cell lines were grown in EMEM supplemented with 10% FBS, EMEM, NEAA, HEPES 20 mM, extra glutamine, and penicillin-streptomycin. The cells were grown at 37° C. in humidified incubators in an atmosphere of 5% CO2.

[2] = test system: p21 ras protein (MCF-7 cells); assay: Western blotting of p21 ras protein in MCF-7 cells; settings: 5 microM
Description: (§2) Western blotting of p21 protein was performed as described below. […] V is cell lysate from Ha-MuSV-transformed NIH3T3 clone 13-3B-4. M, marker proteins of known molecular weight.
Cellular proteins present in cell extracts were separated by 12% SDS-PAGE and transferred to nitrocellulose sheets in transfer buffer (25 mM Tris, 192 mM glycine, 20% methanol, pH 7.4). Nitrocellulose sheets were washed and first incubated with 3% bovine serum albumin in NTE-NP40 (50 mM Tris-HCl, pH 7.5, 150 mM NaCl, 2 mM EDTA, 0.1% Nonidet P-40) for three hours at 37° C. and then sequentially incubated with medium containing p21 monoclonal antiserum Y13-259 directed against the Ha-MuSV-encoded p21 for sixteen hours at 4° C., rabbit anti-rat IgG for 2.5 hours in an ice-water bath, and 5×10^5 cpm/ml ^125 I-protein A for one hour in an ice-water bath. The nitrocellulose sheets were air-dried and exposed to Kodak XAR film for 12-36 hours at -20° C. Comparison of the resulting autoradiograms with others in which normal rat serum was substituted for p21 monoclonal antibody permitted identification of p21. To provide a reference p21, cell lysates were prepared from NIH 3T3 clone 13-3B-4 that had been transfected with Ha-MuSV DNA.
The levels of p21 protein are expressed relative to the p21 level in the untreated control cells, which is set equal to 1.0 O.D.

[3] = test system: breast and colon cancer cell lines; assay: cell cycle progression of breast and colon cancer cell lines; settings: vs untreated control cells
Description: (§3) DNA histograms were generated on FACS II by using the DNA intercalating dye propidium iodide as described by Braylan et al. (Cytometry 2: 337-343, 1982). The percentage of cells in each cycle phase was calculated by using a PDP-11/34 computer and software as described by Neckers et al. (Mol. Cell. Biol. 6: 4244-4250, 1986).
A determination was made whether the reduced cell proliferation observed in the cancer cell lines after treatment with the compounds of the present invention is due to a specific block in one phase of the cell cycle.

[4] = test system: LS-174T colon cancer cells; assay: cell cycle analysis, LS-174T; settings: 8-Cl-adenosine 5 μM, 3 days, two separate experiments
Description: as §3
Breast (MCF-7, MDA-MB-231) and colon (LS-174T) cancer cells in
log phase (untreated control) and 3 days after treatment with
(5 μM) were analyzed for DNA content by flow cytometric analysis

[5] = test system: R^I cAMP receptor protein (Molt-4); assay: R^I cAMP receptor protein in Molt-4 leukemic cells; settings: growth-arrested by 8-Cl-adenosine (5 micromol/L)
Text: (§4) M marker proteins of known molecular weight. […] The resulting supernatants were used as cell lysates. […] ND=nondetectable.

MCF-7 cells = assay: growth of MCF-7 cells; settings: 5 microM
Description: as §2, §1
For cell growth experiments, 2-3×10^5 cells/60 mm dish were seeded, and 24 hours later (Day 0), the medium was removed, and fresh medium and the additives were added then and every 48 hours thereafter The compounds of the present invention were added using 100× concentrated stock solutions. At desired times, cell counts in duplicate were performed on a Coulter counter after harvesting the cells with gentle trypsinization.

c-myc protein = c-myc protein level, Western blotting (FIG. 9B); settings: growth-arrested by 8-Cl-adenosine (5 micromol/L)
Description: The cells were grown in suspension culture in RPMI 1640 medium supplemented with 10% fetal bovine serum, penicillin (50 U/ml), streptomycin ([…]), 10 mmol/L HEPES buffer, and extra glutamine. […] Surface antigen analysis of HL-60 cells was performed by flow cytometry using a panel of monoclonal antibodies reactive with either myeloid cells or monocytic cells. Terminal deoxynucleotidyl transferase (TdT) was assayed by an immunoperoxidase method using a TdT fluorescence kit. Western blotting of c-myc protein was performed using c-myc antibody 15206D11 (Scripps Clinic and Research Foundation, LaJolla, Calif.).
as §4

SMILES: Nc1ncnc2c1nc(Cl)n2[C@@H]1O[C@H](CO)[C@@H](O)[C@H]1O [8-Cl-adenosine, reference compound]
- mechanism of growth inhibition / cell viability [1]: cell killing
- cell growth during treatment ([1]; 8-Cl-cAMP 10 microM or 8-Cl-adenosine 5 microM): marked reduction in cell growth
- growth after cessation of treatment ([1]; after removal of additives): remained growth-inhibited and did not resume their growth up to two weeks
- p21 level, in words [2]: did not appreciably affect the p21 level
- fractions of cells in G1, S and G2/M phases, in words [3]: appreciable increase of the cell population in Gl phase with a marked reduction in S-phase
- % Cell population in G1 [4]: 72,68%
- % Cell population in G2 M [4]: 20,18%
- % Cell population in S [4]: 8,14%
- activity at 5 µM ([4]; Homo sapiens, LS174T, 72 h, read-out: % Growth): 30.3%
- decrease in R^I receptor level [5]: not observed
- growth inhibition, in words (MCF-7 cells): strong growth inhibition
- decrease in c-myc protein level (c-myc protein): not observed

Reference: patent US5902794A (priority 1997, dated 1999)
